Values of other authors as cited in patent publication US11963942B2, “Oral taxane compositions and methods” (Athenex HK Innovative Limited, priority 2015, dated 2024).

Molecular target: MDR1 (ABCB1) (Homo sapiens, UniProt P08183)
Settings: Kwak et al., Eur. J. Pharm. 627, 92-98 (2010)

MDR1 (ABCB1), sequence (P08183 whole entry, species assumed): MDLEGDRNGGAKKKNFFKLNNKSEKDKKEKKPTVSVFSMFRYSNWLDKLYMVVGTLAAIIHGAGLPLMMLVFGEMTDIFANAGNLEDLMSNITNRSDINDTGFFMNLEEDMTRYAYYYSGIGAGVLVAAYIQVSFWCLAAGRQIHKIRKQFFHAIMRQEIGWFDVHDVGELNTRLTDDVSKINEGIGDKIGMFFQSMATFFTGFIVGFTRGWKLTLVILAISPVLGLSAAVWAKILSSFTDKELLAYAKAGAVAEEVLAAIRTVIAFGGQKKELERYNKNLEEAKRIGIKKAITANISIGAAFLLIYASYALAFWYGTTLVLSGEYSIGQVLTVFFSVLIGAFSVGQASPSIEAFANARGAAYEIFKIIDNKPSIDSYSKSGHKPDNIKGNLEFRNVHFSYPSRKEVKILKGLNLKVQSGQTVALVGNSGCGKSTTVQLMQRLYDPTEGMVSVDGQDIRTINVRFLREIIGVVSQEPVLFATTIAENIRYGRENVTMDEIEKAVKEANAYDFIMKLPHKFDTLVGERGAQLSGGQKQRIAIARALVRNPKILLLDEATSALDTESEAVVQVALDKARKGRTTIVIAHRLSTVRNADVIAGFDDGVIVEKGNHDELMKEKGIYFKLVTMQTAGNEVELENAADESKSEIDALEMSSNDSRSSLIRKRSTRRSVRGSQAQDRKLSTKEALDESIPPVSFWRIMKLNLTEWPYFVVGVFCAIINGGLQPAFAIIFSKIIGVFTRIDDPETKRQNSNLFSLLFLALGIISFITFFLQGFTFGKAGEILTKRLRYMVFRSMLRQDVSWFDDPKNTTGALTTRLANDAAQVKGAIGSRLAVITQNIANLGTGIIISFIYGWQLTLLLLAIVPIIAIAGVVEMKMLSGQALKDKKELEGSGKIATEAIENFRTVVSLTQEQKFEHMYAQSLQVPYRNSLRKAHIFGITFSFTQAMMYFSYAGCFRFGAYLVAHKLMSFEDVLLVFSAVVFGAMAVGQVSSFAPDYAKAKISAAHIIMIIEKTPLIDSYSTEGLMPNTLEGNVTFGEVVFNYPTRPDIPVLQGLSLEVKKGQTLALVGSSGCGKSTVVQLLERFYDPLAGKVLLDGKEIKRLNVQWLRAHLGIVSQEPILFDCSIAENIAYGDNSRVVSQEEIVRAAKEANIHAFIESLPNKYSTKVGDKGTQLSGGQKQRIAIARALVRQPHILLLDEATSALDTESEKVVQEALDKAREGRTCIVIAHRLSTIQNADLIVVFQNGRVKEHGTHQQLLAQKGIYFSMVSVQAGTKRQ

potency compared with cyclosporine A: more potent than cyclosporine A
SMILES: COc1cc2c(cc1OC)CN(CCc1ccc(-n3nnc(-c4cc(OC)c(OC)cc4NC(=O)c4cc(=O)c5ccccc5o4)n3)cc1)CC2 [HM30181, 4-oxo-4H-chromene-2-carboxylic acid [2-(2-(4-[2-(6,7-dimethoxy-3,4-dihydro-1H-isoquinolin-2-yl)-ethyl]-phenyl)-2H-tetrazol-5-yl)-4,5-dimethoxy-phenyl]-amide]
